Measurements published in patent US20210274823A1, “NOVEL TRITERPENE-GLYCOSIDES AS SWEETENERS OR SWEETENER ENHANCER” (priority 2017, published 2021).

Assay: Organoleptic test of the compounds of formula (I) against sucrose
Design: key to sweetness compared to sucrose: 3: sweeter than the control solution; 2: sweetness comparable with the control solution; 1: less sweet than the control solution but still sweet
Details: panel of 3-4 panelists; for sweetness compared to sucrose: test compound dissolved in water (Evian) at 400 ppm, control sucrose 20 g/l; for Comment (taste impression): test compound dissolved in water at 400 ppm
Protocol: The isolated pure compounds were dissolved in non-carbonated mineral water (“Evian”) in a concentration of 0.4 mg/ml (400 ppm). The sweet taste of each sample was compared by a panel of 3-4 panelists with a solution of sucrose in a concentration of 20 g/l.

Row | Structure (SMILES) | sweetness compared to sucrose | Comment (taste impression)
1 | CC(C)=CCC[C@](C)(O[C@@H]1O[C@H](CO[C@@H]2OC[C@@H](O)[C@H](O)[C@H]2O)[C@@H](O)[C@H](O)[C@H]1O)[C@H]1CC[C@]2(C)[C@@H]1[C@H](O)CC1[C@@]3(C)C[C@@H](O)[C@H](O[C@@H]4O[C@H](CO)[C@@H](O)[C@H](O)[C@H]4O[C@@H]4O[C@H](CO)[C@@H](O)[C@H](O)[C@H]4O)C(C)(C)C3CC[C@]12C (stereo partly drawn) [Compound A] | 2 | Slightly hot
2 | CC(C)=CCC[C@](C)(O[C@@H]1O[C@H](CO)[C@@H](O)[C@H](O)[C@H]1O)[C@H]1CC[C@]2(C)[C@@H]1[C@H](O)CC1[C@@]3(C)C[C@@H](O)[C@H](O[C@@H]4O[C@H](COC5OCC(O)C(O)C5O)[C@@H](O)[C@H](O)[C@H]4O[C@@H]4O[C@H](CO)[C@@H](O)[C@H](O)[C@H]4O)C(C)(C)C3CC[C@]12C (stereo partly drawn) [Compound H] | 3 | Slightly bitter
3 | CC(C)=CCC[C@](C)(O[C@@H]1O[C@H](CO)[C@@H](O)[C@H](O)[C@H]1O)[C@H]1CC[C@]2(C)[C@@H]1[C@H](O)CC1[C@@]3(C)C[C@@H](O)[C@H](O[C@@H]4O[C@H](CO)[C@@H](O)[C@H](O)[C@H]4O[C@@H]4O[C@H](CO)[C@@H](O)[C@H](O)[C@H]4O)C(C)(C)C3CC[C@]12C (stereo partly drawn) [Compound B] | 3 | Slightly bitter
4 | CC(CO)C(=O)CC[C@](C)(O[C@@H]1O[C@H](CO)[C@@H](O)[C@H](O)[C@H]1O)[C@H]1CC[C@]2(C)[C@@H]1[C@H](O)CC1[C@@]3(C)C[C@@H](O)[C@H](O[C@@H]4O[C@H](CO)[C@@H](O)[C@H](O)[C@H]4O[C@@H]4O[C@H](CO)[C@@H](O)[C@H](O)[C@H]4O)C(C)(C)C3CC[C@]12C (stereo partly drawn) [Compound K] | 3 | 
5 | CC(CO)C(=O)CC[C@](C)(O[C@@H]1O[C@H](CO)[C@@H](O)[C@H](O)[C@H]1O)[C@H]1CC[C@]2(C)[C@@H]1[C@H](O)CC1[C@@]3(C)C[C@@H](O)[C@H](O[C@@H]4O[C@H](CO)[C@@H](O)[C@H](O)[C@H]4O[C@@H]4O[C@H](CO)[C@@H](O)[C@H](O)[C@H]4O)C(C)(C)C3CC[C@]12C (stereo partly drawn) [Compound L] | 2 | 
6 | C=C(C)C(O)CC[C@](C)(O[C@@H]1O[C@H](CO[C@@H]2OC[C@@H](O)[C@H](O)[C@H]2O)[C@@H](O)[C@H](O)[C@H]1O)[C@H]1CC[C@]2(C)[C@@H]1[C@H](O)CC1[C@@]3(C)C[C@@H](O)[C@H](O[C@@H]4O[C@H](CO)[C@@H](O)[C@H](O)[C@H]4O[C@@H]4O[C@H](CO)[C@@H](O)[C@H](O)[C@H]4O)C(C)(C)C3CC[C@]12C (stereo partly drawn) [Compound I] | 2 | 
7 | CC1(C)C2CC[C@]3(C)C(C[C@@H](O)[C@@H]4[C@@H]([C@](C)(CCCO)O[C@@H]5O[C@H](CO)[C@@H](O)[C@H](O)[C@H]5O)CC[C@]43C)[C@@]2(C)C[C@@H](O)[C@@H]1O[C@@H]1O[C@H](CO)[C@@H](O)[C@H](O)[C@H]1O[C@@H]1O[C@H](CO)[C@@H](O)[C@H](O)[C@H]1O (stereo partly drawn) [Compound J] | 2 | 
8 | CC(C)(/C=C/C[C@@](C)(O[C@@H]1O[C@H](CO)[C@@H](O)[C@H](O)[C@H]1O)[C@H]1CC[C@]2(C)[C@@H]1[C@H](O)C[C@@H]1[C@@]3(C)C[C@@H](O)[C@H](O[C@@H]4O[C@H](CO)[C@@H](O)[C@H](O)[C@H]4O[C@@H]4O[C@H](CO)[C@@H](O)[C@H](O)[C@H]4O)C(C)(C)[C@@H]3CC[C@]12C)OO (stereo in doubt) [Compound E] | 3 | 
9 | CC(C)(O)/C=C/C[C@](C)(O[C@@H]1O[C@H](CO)[C@@H](O)[C@H](O)[C@H]1O)[C@H]1CC[C@]2(C)C1[C@H](O)CC1[C@@]3(C)C[C@@H](O)[C@H](O[C@@H]4O[C@H](CO)[C@@H](O)[C@H](O)[C@H]4O[C@@H]4O[C@H](CO)[C@@H](O)[C@H](O)[C@H]4O)C(C)(C)C3CC[C@]12C (stereo partly drawn) [Compound D] | 3 | 
10 | CC(C)(/C=C/C[C@](C)(O[C@@H]1O[C@H](CO[C@@H]2OC[C@@H](O)[C@H](O)[C@H]2O)[C@@H](O)[C@H](O)[C@H]1O)[C@H]1CC[C@]2(C)C1[C@H](O)CC1[C@@]3(C)C[C@@H](O)[C@H](O[C@@H]4O[C@H](CO)[C@@H](O)[C@H](O)[C@H]4O[C@@H]4O[C@H](CO)[C@@H](O)[C@H](O)[C@H]4O)C(C)(C)C3CC[C@]12C)OO (stereo partly drawn) [Compound G] | 2 | Slightly bitter
11 | C=C(C)C(CC[C@](C)(O[C@@H]1O[C@H](CO[C@@H]2OC[C@@H](O)[C@H](O)[C@H]2O)[C@@H](O)[C@H](O)[C@H]1O)[C@H]1CC[C@]2(C)[C@@H]1[C@H](O)CC1[C@@]3(C)C[C@@H](O)[C@H](O[C@@H]4O[C@H](CO)[C@@H](O)[C@H](O)[C@H]4O[C@@H]4O[C@H](CO)[C@@H](O)[C@H](O)[C@H]4O)C(C)(C)C3CC[C@]12C)OO (stereo partly drawn) [Compound C] | 2 | 
